The term Kb denotes the equilibrium dissociation constant of an antagonist, usually derived from a functional assay.

The source of these data is patent US4931447A, “Cycloalkylamides of (8β)-1-alkyl-6-(substituted) ergolines” (Eli Lilly and Company, priority 1989, dated 1990).

Structures can show the parent of a compound that is named as a salt. Where two headings read alike, the source gives them in different places.

This assay deals with T1, 5HT2 Receptors (Rattus norvegicus, UniProt P14842).
T1 construct: from tissue; host or cells: rat external jugular vein (isolated, male Wistar)
The assay is described as follows: Apparent antagonist dissociation constant (KB) at 5HT2 receptors, serotonin-induced contraction of isolated rat external jugular vein. The class given is cell-based, rat (male Wistar). The source says:
Male Wistar rats (about 150-300 gram weight) were killed and their external jugular veins and thoracic aortas dissected free of connective tissue, cannulated in situ and placed in a modified Krebs' bicarbonate buffer in a suitable tissue bath. Two L-shaped 30-gauge stainless-steel hypodermic needles were inserted in each cannula and the dissected vessels gently pushed onto the needles. One needle was attached with thread to a stationary glass rod and the other to the transducer. [The procedure employed was that described by Hooker, Calkins and Fleisch, Blood Vessels, 14, 1, (1977) for use with circular smooth muscle preparations.]
The modified Krebs' bicarbonate buffer was composed of the following (concentrations in millimoles): sodium chloride, 118.2; potassium chloride, 4.6; calcium chloride dihydrate, 1.6; potassium dihydrogenphosphate, 1.2; magnesium sulfate, 1.2; dextrose, 10.0; sodium bicarbonate, 24.8; and water q.s. to 1000 g. The tissue baths were maintained at 37° C. and were aerated with 95% oxygen: 5% carbon dioxide (v:v). An initial optimum resting force of 1 g and 4 g was applied to the jugular vein and aorta, respectively. Isometric contractions were recorded as changes in grams of force on a Beckman Dynograph with Statham UC-3 transducers and microscale accessory attachment. Tissues were allowed to equilibrate 1 to 2 hours before exposure to drugs. Control responses to serotonin in the jugular vein and to norepinephrine in the aorta were obtained. The vessels were then incubated with appropriate concentrations of the test compound for one hour. Responses to serotonin or to norepinephrine were then repeated in the presence of the test compound. Contraction to serotonin was evaluated in the jugular vein since this tissue produces marked responses to serotonin in the absence of alpha receptors. See Cohen and Wiley, J. Pharm. Exp. Ther., 205, 400 (1978). Alpha receptor antagonist activity was evaluated in the aorta.
Apparent antagonist dissociation constants were determined for each concentration of the test compound according to the following equation: [formula] wherein [B] is the concentration of the antagonist and the dose ratio is the ED50 of the agonist in the presence of the antagonist divided by the control ED50. […] The -log KB values obtained for representative sensitive compounds of this invention and are given below in Table 1. ln the Table, column I provides the Example Number of the compound evaluated in the screen; columns 2-6, the identity of the compound evaluated in the screen when taken with the structure provided; and column 7, the apparent dissociation constant for the test compound.

The mark [1] stands for this setting: rat external jugular vein, antagonism of serotonin contraction, 1 h incubation, 37° C, read-out: 5HT2 -Log KB (apparent dissociation constant) (converted).

T1 sequence (P14842 whole entry): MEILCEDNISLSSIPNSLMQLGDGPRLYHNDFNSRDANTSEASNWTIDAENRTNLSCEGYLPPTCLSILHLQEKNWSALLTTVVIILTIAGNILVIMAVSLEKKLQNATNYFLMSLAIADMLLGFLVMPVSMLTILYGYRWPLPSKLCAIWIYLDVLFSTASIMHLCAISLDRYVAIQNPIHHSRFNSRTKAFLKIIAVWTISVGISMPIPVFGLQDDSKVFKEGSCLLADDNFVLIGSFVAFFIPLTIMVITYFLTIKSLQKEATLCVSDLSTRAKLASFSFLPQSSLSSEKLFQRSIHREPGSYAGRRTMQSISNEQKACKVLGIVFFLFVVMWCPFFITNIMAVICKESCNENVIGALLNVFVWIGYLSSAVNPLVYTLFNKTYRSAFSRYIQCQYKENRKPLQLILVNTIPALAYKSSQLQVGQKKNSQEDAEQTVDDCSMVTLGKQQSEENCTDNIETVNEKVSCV

For `CC(C)n1cc2c3c(cccc31)[C@H]1C[C@@H](C(=O)NC3CCCC3)CN(C)[C@@H]1C2` [Example 9, (8β)-N-Cyclopentyl-1-isopropyl-6-methylergoline-8-carboxamide], the Kb was 0.0468 nM.
The same measure, in the same setting: then `CC(C)n1cc2c3c(cccc31)[C@H]1C[C@@H](C(=O)NC3CCCCC3O)CN(C)[C@@H]1C2` (stereo partly drawn) [Example 14, (8β)-N-(2-Hydroxycyclohexyl)-1-isopropyl-6-methylergoline-8-carboxamide], with 0.0275 nM.
On the same count and under the same terms, then `CC(C)n1cc2c3c(cccc31)[C@H]1C[C@@H](C(=O)NC3CCCCCC3)CN(C)[C@@H]1C2` [Example 12, (8β)-N-Cycloheptyl-1-isopropyl-6-methylergoline-8-carboxamide], with 1.05 nM.
Take `CO[C@H]1CC[C@@H](NC(=O)[C@@H]2C[C@@H]3c4cccc5c4c(cn5C(C)C)C[C@H]3N(C)C2)CC1` [Example 4, (8β)-cis-N-(4-Methoxycyclohexyl)-1-isopropyl-methylergoline-8-carboxamide]: the Kb under setting [1] was 0.186 nM.
With `CCn1cc2c3c(cccc31)[C@H]1C[C@@H](C(=O)N[C@H]3CC[C@@H](OC)CC3)CN(C)[C@@H]1C2` [Example 7, (8β)-cis-N-(4-Methoxycyclohexyl)-1-ethyl-6-methylergoline-8-carboxamide maleate], the Kb is 0.229 nM.
Turning to `CCn1cc2c3c(cccc31)[C@H]1C[C@@H](C(=O)NC3CCCCC3)CN(C)[C@@H]1C2` [Example 10, (8β)-N-Cyclohexyl-1-ethyl-6-methylergoline-8-carboxamide], the Kb was 0.562 nM.
The same measure, in the same setting: in the case of `CC1CCC(NC(=O)[C@@H]2C[C@@H]3c4cccc5c4c(cn5C(C)C)C[C@H]3N(C)C2)CC1` (stereo partly drawn) [Example 13, (8β)-N-(4-Methylcyclohexyl)-1-isopropyl-6-methylergoline-8-carboxamide] it was 6.46 nM.
`CO[C@H]1CC[C@@H](NC(=O)[C@@H]2C[C@@H]3c4cccc5c4c(cn5C)C[C@H]3N(C)C2)CC1` [Example 6, (8β)-cis-N-(4-Methoxycyclohexyl)-1,6-dimethylergoline-8-carboxamide maleate]: the Kb was 0.269 nM.
Regarding `CC(C)n1cc2c3c(cccc31)[C@H]1C[C@@H](C(=O)N[C@H]3CC[C@H](O)CC3)CN(C)[C@@H]1C2` [Example 11, (8β)-trans-N-(4-Hydroxycyclohexyl)-1-isopropyl-methylergoline-8-carboxamide], the Kb under setting [1] is 6.46 nM.
For `CCCN1C[C@H](C(=O)NC2CCCCC2)C[C@@H]2c3cccc4c3c(cn4C(C)C)C[C@H]21` [Example 3, (8β)-N-Cyclohexyl-1-isopropyl-6-n-propylergoline-8-carboxamide], the Kb is 0.794 nM.
The same measure, in the same setting: then `CN1C[C@H](C(=O)NC2CCCCC2)C[C@@H]2c3cccc4c3c(cn4C)C[C@H]21` [Example 8, (8β)-N-Cyclohexyl-1,6-dimethylergoline-8carboxamide], with 0.2 nM.
`CC(C)n1cc2c3c(cccc31)[C@H]1C[C@@H](C(=O)N(C)C3CCCCC3)CN(C)[C@@H]1C2` [Example 2, (8β-N-Cyclohexyl-N-methyl-1-isopropyl-6-methylergoline-8-carboxamide maleate]: under setting [1], the Kb is 1 nM.
For `CO[C@H]1CC[C@H](NC(=O)[C@@H]2C[C@@H]3c4cccc5c4c(cn5C(C)C)C[C@H]3N(C)C2)CC1` (relative stereo) [Example 5, (8β)-trans-N-(4-Methoxycyclohexyl)-1-isopropyl-6-methylergoline-8-carboxamide], the Kb is 0.186 nM.
